Assay results from PubChem BioAssay (NCI).
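Values below derive from 48-hour exposures of cells grown in 96-well plates, with endpoints linearly interpolated between the two concentrations bracketing the appropriate inhibition level. At the TGI there is no net growth.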

Assays:
Assay in all cases: growth of human tumour cells (NCI), 48 h
OVCAR-5 ovarian = system: OVCAR-5 ovarian
OVCAR-8 ovarian = system: OVCAR-8 ovarian
SR leukemia = system: SR leukemia
BT-549 breast = system: BT-549 breast
SF-295 CNS = system: SF-295 CNS
SK-MEL-2 melanoma = system: SK-MEL-2 melanoma
OVCAR-3 ovarian = system: OVCAR-3 ovarian
SN12C renal = system: SN12C renal
MOLT-4 leukemia = system: MOLT-4 leukemia
DU-145 prostate = system: DU-145 prostate
MDA-N = system: MDA-N
SNB-19 CNS = system: SNB-19 CNS
SK-OV-3 ovarian = system: SK-OV-3 ovarian
NCI-H23 lung = system: NCI-H23 lung
IGROV1 ovarian = system: IGROV1 ovarian
RXF 393 renal = system: RXF 393 renal
HOP-92 NSCLC = system: HOP-92 NSCLC
MALME-3M melanoma = system: MALME-3M melanoma
NCI-H460 lung = system: NCI-H460 lung
NCI/ADR-RES ovarian = system: NCI/ADR-RES ovarian
SNB-75 CNS = system: SNB-75 CNS
HCT-15 colon = system: HCT-15 colon
ACHN renal = system: ACHN renal
HCC-2998 colon = system: HCC-2998 colon
MDA-MB-231 breast = system: MDA-MB-231 breast
MDA-MB-435 = system: MDA-MB-435
OVCAR-4 ovarian = system: OVCAR-4 ovarian
UO-31 renal = system: UO-31 renal
A549 NSCLC = system: A549 NSCLC
A498 renal = system: A498 renal
UACC-257 melanoma = system: UACC-257 melanoma
HS 578T breast = system: HS 578T breast
UACC-62 melanoma = system: UACC-62 melanoma
EKVX NSCLC = system: EKVX NSCLC
TK-10 renal = system: TK-10 renal
KM12 colon = system: KM12 colon
SK-MEL-5 melanoma = system: SK-MEL-5 melanoma
LOX IMVI melanoma = system: LOX IMVI melanoma
RPMI-8226 leukemia = system: RPMI-8226 leukemia
SF-268 CNS = system: SF-268 CNS
HT29 colon = system: HT29 colon
SK-MEL-28 melanoma = system: SK-MEL-28 melanoma
U251 CNS = system: U251 CNS
MCF7 breast = system: MCF7 breast
M14 melanoma = system: M14 melanoma
HCT-116 colon = system: HCT-116 colon
COLO 205 colon = system: COLO 205 colon
T-47D breast = system: T-47D breast
CAKI-1 renal = system: CAKI-1 renal
786-0 renal = system: 786-0 renal
HOP-62 NSCLC = system: HOP-62 NSCLC
PC-3 prostate = system: PC-3 prostate
NCI-H226 lung = system: NCI-H226 lung
SW-620 colon = system: SW-620 colon
NCI-H522 lung = system: NCI-H522 lung
K-562 leukemia = system: K-562 leukemia
SF-539 CNS = system: SF-539 CNS
CCRF-CEM leukemia = system: CCRF-CEM leukemia
HL-60(TB) leukemia = system: HL-60(TB) leukemia

Measured: TGI

NCCNCC1CCNCC1
> 100 µM: OVCAR-5 ovarian | OVCAR-8 ovarian | SR leukemia | BT-549 breast | SF-295 CNS | SK-MEL-2 melanoma | OVCAR-3 ovarian | SN12C renal | MOLT-4 leukemia | DU-145 prostate | MDA-N | SNB-19 CNS | SK-OV-3 ovarian | NCI-H23 lung | IGROV1 ovarian | RXF 393 renal | HOP-92 NSCLC | MALME-3M melanoma | NCI-H460 lung | NCI/ADR-RES ovarian | SNB-75 CNS | HCT-15 colon | ACHN renal | HCC-2998 colon | MDA-MB-231 breast | MDA-MB-435 | OVCAR-4 ovarian | UO-31 renal | A549 NSCLC | A498 renal | UACC-257 melanoma | HS 578T breast | UACC-62 melanoma | EKVX NSCLC | TK-10 renal | KM12 colon | SK-MEL-5 melanoma | LOX IMVI melanoma | RPMI-8226 leukemia | SF-268 CNS | HT29 colon | SK-MEL-28 melanoma | U251 CNS | MCF7 breast | M14 melanoma | HCT-116 colon | COLO 205 colon | T-47D breast | CAKI-1 renal | 786-0 renal | HOP-62 NSCLC | PC-3 prostate | NCI-H226 lung | SW-620 colon | NCI-H522 lung | K-562 leukemia | SF-539 CNS

CNc1ncnc2c1cnn2COCC(O)CO (configuration not stated)
> 100 µM: CCRF-CEM leukemia | OVCAR-5 ovarian | OVCAR-8 ovarian | SR leukemia | BT-549 breast | SF-295 CNS | SK-MEL-2 melanoma | OVCAR-3 ovarian | SN12C renal | MOLT-4 leukemia | DU-145 prostate | MDA-N | SNB-19 CNS | SK-OV-3 ovarian | NCI-H23 lung | IGROV1 ovarian | RXF 393 renal | HOP-92 NSCLC | MALME-3M melanoma | NCI-H460 lung | NCI/ADR-RES ovarian | SNB-75 CNS | HCT-15 colon | ACHN renal | HCC-2998 colon | MDA-MB-231 breast | MDA-MB-435 | OVCAR-4 ovarian | UO-31 renal | A549 NSCLC | A498 renal | UACC-257 melanoma | HS 578T breast | UACC-62 melanoma | EKVX NSCLC | TK-10 renal | KM12 colon | SK-MEL-5 melanoma | LOX IMVI melanoma | RPMI-8226 leukemia | SF-268 CNS | HT29 colon | SK-MEL-28 melanoma | U251 CNS | MCF7 breast | M14 melanoma | HCT-116 colon | COLO 205 colon | T-47D breast | CAKI-1 renal | 786-0 renal | HOP-62 NSCLC | PC-3 prostate | NCI-H226 lung | SW-620 colon | NCI-H522 lung | K-562 leukemia | SF-539 CNS

O=C(/C=C/c1ccccc1)c1ccccc1
4.55 µM: HCT-116 colon
> 7.45 µM: CCRF-CEM leukemia
> 3.16 µM: MOLT-4 leukemia
4.11 µM: LOX IMVI melanoma
> 7.63 µM: RPMI-8226 leukemia
> 10 µM: HL-60(TB) leukemia | OVCAR-5 ovarian | OVCAR-8 ovarian | SR leukemia | BT-549 breast | SF-295 CNS | SK-MEL-2 melanoma | OVCAR-3 ovarian | SN12C renal | DU-145 prostate | MDA-N | SNB-19 CNS | SK-OV-3 ovarian | NCI-H23 lung | IGROV1 ovarian | RXF 393 renal | HOP-92 NSCLC | MALME-3M melanoma | NCI-H460 lung | NCI/ADR-RES ovarian | SNB-75 CNS | HCT-15 colon | ACHN renal | HCC-2998 colon | MDA-MB-231 breast | MDA-MB-435 | OVCAR-4 ovarian | UO-31 renal | A549 NSCLC | A498 renal | UACC-257 melanoma | HS 578T breast | UACC-62 melanoma | EKVX NSCLC | TK-10 renal | KM12 colon | SK-MEL-5 melanoma | SF-268 CNS | HT29 colon | SK-MEL-28 melanoma | U251 CNS | MCF7 breast | M14 melanoma | COLO 205 colon | T-47D breast | CAKI-1 renal | 786-0 renal | HOP-62 NSCLC | PC-3 prostate | NCI-H226 lung | SW-620 colon | NCI-H522 lung | SF-539 CNS
> 7.51 µM: K-562 leukemia

CCOC(=O)C(Cl)(Cl)/S(=N\S(=O)(=O)c1ccccc1)NC(=O)c1ccccc1 (configuration not stated)
> 100 µM: CCRF-CEM leukemia | HL-60(TB) leukemia | OVCAR-5 ovarian | OVCAR-8 ovarian | SR leukemia | BT-549 breast | SF-295 CNS | SK-MEL-2 melanoma | OVCAR-3 ovarian | SN12C renal | MOLT-4 leukemia | DU-145 prostate | MDA-N | SNB-19 CNS | SK-OV-3 ovarian | NCI-H23 lung | IGROV1 ovarian | RXF 393 renal | HOP-92 NSCLC | MALME-3M melanoma | NCI-H460 lung | NCI/ADR-RES ovarian | SNB-75 CNS | HCT-15 colon | ACHN renal | MDA-MB-231 breast | MDA-MB-435 | OVCAR-4 ovarian | UO-31 renal | A549 NSCLC | A498 renal | UACC-257 melanoma | HS 578T breast | UACC-62 melanoma | EKVX NSCLC | TK-10 renal | KM12 colon | SK-MEL-5 melanoma | LOX IMVI melanoma | RPMI-8226 leukemia | SF-268 CNS | HT29 colon | SK-MEL-28 melanoma | U251 CNS | MCF7 breast | M14 melanoma | HCT-116 colon | COLO 205 colon | T-47D breast | 786-0 renal | HOP-62 NSCLC | PC-3 prostate | NCI-H226 lung | SW-620 colon | K-562 leukemia | SF-539 CNS

COc1cc(-c2cc(=O)c3cc4c(=O)cc(-c5cc(OC)c(OC)c(OC)c5)oc4cc3o2)cc(OC)c1OC
> 67.8 µM: NCI-H23 lung
65.6 µM: A498 renal
23.4 µM: U251 CNS
46.2 µM: NCI-H226 lung
39 µM: 786-0 renal
41.4 µM: SK-OV-3 ovarian
> 100 µM: CCRF-CEM leukemia | HL-60(TB) leukemia | OVCAR-5 ovarian | OVCAR-8 ovarian | SR leukemia | OVCAR-3 ovarian | SN12C renal | MOLT-4 leukemia | DU-145 prostate | MDA-N | MALME-3M melanoma | NCI-H460 lung | NCI/ADR-RES ovarian | HCT-15 colon | HCC-2998 colon | MDA-MB-435 | OVCAR-4 ovarian | UO-31 renal | A549 NSCLC | UACC-257 melanoma | EKVX NSCLC | KM12 colon | SK-MEL-5 melanoma | LOX IMVI melanoma | RPMI-8226 leukemia | HT29 colon | SK-MEL-28 melanoma | MCF7 breast | M14 melanoma | HCT-116 colon | COLO 205 colon | T-47D breast | PC-3 prostate | SW-620 colon | SF-539 CNS
40.6 µM: SF-295 CNS
26.4 µM: RXF 393 renal | HOP-62 NSCLC
32.3 µM: SNB-75 CNS
> 64.5 µM: MDA-MB-231 breast | UACC-62 melanoma
> 31.6 µM: CAKI-1 renal
42.5 µM: TK-10 renal
> 94.7 µM: SF-268 CNS
> 85.1 µM: ACHN renal
> 85.8 µM: NCI-H522 lung
97.2 µM: HS 578T breast
86.2 µM: BT-549 breast
43.3 µM: HOP-92 NSCLC
41.3 µM: SK-MEL-2 melanoma
59.6 µM: SNB-19 CNS
> 56 µM: K-562 leukemia
> 79.1 µM: IGROV1 ovarian

Cn1c(=O)c2c(nc(C(=N)SCC(=O)O)n2C)n(C)c1=O
52.8 µM: HL-60(TB) leukemia
35.8 µM: CCRF-CEM leukemia
37.6 µM: SK-MEL-5 melanoma
66.7 µM: A498 renal
> 100 µM: OVCAR-5 ovarian | OVCAR-8 ovarian | BT-549 breast | SF-295 CNS | SK-MEL-2 melanoma | OVCAR-3 ovarian | SN12C renal | DU-145 prostate | MDA-N | SNB-19 CNS | SK-OV-3 ovarian | NCI-H23 lung | IGROV1 ovarian | RXF 393 renal | HOP-92 NSCLC | MALME-3M melanoma | NCI-H460 lung | NCI/ADR-RES ovarian | SNB-75 CNS | HCT-15 colon | ACHN renal | MDA-MB-231 breast | MDA-MB-435 | UO-31 renal | A549 NSCLC | UACC-257 melanoma | HS 578T breast | UACC-62 melanoma | EKVX NSCLC | TK-10 renal | KM12 colon | LOX IMVI melanoma | RPMI-8226 leukemia | SF-268 CNS | HT29 colon | SK-MEL-28 melanoma | U251 CNS | MCF7 breast | M14 melanoma | HCT-116 colon | T-47D breast | 786-0 renal | HOP-62 NSCLC | PC-3 prostate | NCI-H226 lung | SW-620 colon | NCI-H522 lung | K-562 leukemia | SF-539 CNS
99 µM: CAKI-1 renal
50.9 µM: MOLT-4 leukemia
80.2 µM: SR leukemia
71.5 µM: COLO 205 colon
85.6 µM: OVCAR-4 ovarian
